# Measured values published in patent publication US20120309677A1, “METHODS FOR REGULATING BLOOD GLUCOSE LEVELS” (Monash University, priority 2010, published 2012).
# Assays:
# [1] = Glucose disposal during ipGTT with systemic α-MSH infusion; type: in vivo, mice; conditions: for glucose disposal during ipGTT: systemic infusion (external jugular vein) 1 μg/h
# Experimental: Mice were instrumented with an arterial catheter (carotid artery) to monitor blood pressure (BP), heart rate (HR) and for sampling. At the same time, a venous catheter (jugular vein) was placed to infuse α-MSH (1 μg/h) for 3 h. Blood glucose was measured before and at 10 and 20 mins of α-MSH infusion. After that, mice received an ip glucose injection (GTT, 1 mg/g). Blood glucose levels were measured at 15, 30, 60 and 120 mins after glucose challenge. BP and […] were recorded during whole procedure. The results are shown in FIGS. 5A and 5B. **[…] vs saline infusion. In a further experiment, MC4R activity was blocked using agouti-related peptide (AgRP; 1.0 nmol, 1 μl) administered (by injection to the lateral ventricle) 1 hr before commencement of the α-MSH infusion.
# hMC5R = hMC5R (Homo sapiens, UniProt P33032); conditions: cited from earlier work
# [2] = Muscle temperature in sheep during α-MSH infusion; type: in vivo
# Experimental: Four ovariectomised ewes were placed on a diet of temporal food restriction where food was made available between 11:00-16:00 h (as depicted by the grey box in FIGS. 4A and 4B). Animals were exposed to this feeding window for at least 2 weeks prior to experimentation. Then, one week before the onset of experiments, an indwelling cannulae was surgically inserted into the external jugular vein (experiment a) or femoral artery (experiment b). At the same time, a datalogger was implanted into the vastus lateralis muscle of the hindlimb and programmed to read temperature at 15 min intervals. Animals were treated with either α-MSH 100 μg/h (▾ triangles) for experiment a or 1 μg/h for experiment b or saline (800 μl/h, […]). Infusions were carried out between 10:00-19:00 h.
# soleus muscles = assay: Glucose uptake in isolated soleus muscles (2-deoxy-D-[3H]glucose); type: cell-based, mice; conditions: 100 nM, presence and absence of 10 nM insulin
# Experimental: Mice were fasted overnight and soleus muscles were dissected from anaesthetised mice. Muscles were preincubated for 30 min with 1 ml of warmed (30° C.), pregassed (95% O2-5% CO2, pH 7.4), modified Krebs-Henseleit buffer supplemented with 2 mmol/l sodium pyruvate, 8 mmol/l mannitol, and 0.1% wt/vol BSA and were then incubated with or without 10 nM insulin, α-MSH (100 nM) or α-MSH plus insulin (100 nM+10 nM) for 20 min. Glucose uptake was assessed for 10 min using 2-deoxy-D-[2,6-^3H]glucose (1 mmol/1, 0.5 μCi/ml) in the presence or absence of 10 nM insulin. Radioactivity was measured in muscle lysates by liquid scintillation counting.
# p-AMPK [3] = assay: p-AMPK levels in soleus muscles treated in vitro (Western blot); type: cell-based; conditions: lean mice; 1, 10 and 100 nM for 45 min in vitro; FIG. 8
# Experimental: Soleus muscles were dissected from anaesthetised mice. Muscles were incubated with α-MSH (at 1, 10, and 100 nM) for 45 min. After that, muscles were immediately homogenised in cold RIPA lysis buffer. Homogenates were centrifugated and supernatant were collected to measure protein contents ([…]). 50 μg of each sample was loaded on a 10% Tris-Glycine pre-cast gel. A liver protein sample was run as a positive control. The gel was then transferred onto an Immobilon PVDF membrane for 2 h and after blocking for 1 h with 5% milk in TBST, was incubated o/n with anti-p-AMPK antibody (1:1000; Cell Signaling Technology, Inc, Danvers, Mass., United States of America), anti-total AMPK (1:1000, Cell Signaling Technology, Inc), or anti-GAPDH antibody (1:20000). To avoid interferences with total AMPK antibody, membranes were stripped before incubating with this antibody. Goat anti-mouse IgG horseradish peroxidase (1:50000, Santa Cruz Biotechnology, Inc, Santa Cruz, Calif., United States of America) was used as secondary antibody.
# cAMP = cAMP levels in muscles after α-MSH infusion (immunoassay); type: in vivo; conditions: control mice; 45 minutes of α-MSH infusion; FIG. 9A
# Experimental: To measure cAMP concentrations and to determine p-AMPK protein expression in muscles, an experiment was conducted according to a similar design to that described in FIG. 5. Muscle tissues were obtained after 45 minutes of initiating α-MSH infusion and 25 minutes of administering glucose injection. cAMP concentration was determined with a direct immunoassay kit (BioVision Research Products, Mountain View, Calif., United States of America). The kit has a cAMP polyclonal antibody onto the plate. cAMP-HRP conjugates directly compete with cAMP from sample binding to the cAMP antibody on the plate. The HRP activity at 450 nm is inversely proportional to the cAMP concentration in samples. White bars: saline infusion, dark bars: α-MSH infusion
# p-AMPK [4] = assay: p-AMPK protein expression in muscles after α-MSH infusion (Western blot); type: in vivo; conditions: control mice, FIG. 9B
# Experimental: To measure cAMP concentrations and to determine p-AMPK protein expression in muscles, an experiment was conducted according to a similar design to that described in FIG. 5. Muscle tissues were obtained after 45 minutes of initiating α-MSH infusion and 25 minutes of administering glucose injection. cAMP concentration was determined with a direct immunoassay kit (BioVision Research Products, Mountain View, Calif., United States of America). The kit has a cAMP polyclonal antibody onto the plate. cAMP-HRP conjugates directly compete with cAMP from sample binding to the cAMP antibody on the plate. The HRP activity at 450 nm is inversely proportional to the cAMP concentration in samples. White bars: saline infusion, dark bars: α-MSH infusion p-AMPK and total AMPK were determined by Western blot. Results shown in FIG. 9B are expressed as a ratio P/Total AMPK. *P<0.05
# [5] = tested on: Rat L6 skeletal muscle cells; assay: Glucose uptake in differentiated L6 cells; type: cell-based; conditions: 100 nM α-MSH and/or 10 nM insulin; FIG. 10
# Experimental: Rat L6 skeletal muscle cells were seeded in 12-well plates and differentiated in myotubes by replacing growth medium (DMEM+10% FBS) with DMEM+2% horse serum. Medium was changed every day for 1 week. Cells were preincubated for 20 min with no glucose medium+0.1% fatty acid-free BSA. 10 nM of insulin and/or 100 nM α-MSH was added to the corresponding wells. Glucose uptake was assessed for 15 min using 2-deoxy-D-[2,6-^3H]glucose (1 mmol/1, 0.5 μCi/ml) in the presence or absence of 10 nM insulin and 100 nM of α-MSH. Radioactivity was measured in cell lysates by liquid scintillation counting.
# skeletal muscle cells = assay: Glucose uptake in skeletal muscle cells with MC5R agonist; type: cell-based
# adult monkey pituitaries = assay: α-MSH release from halved pituitaries; type: cell-based; conditions: glucose 15 mM, insulin 200 nM, 45 min; FIG. 1A
# Experimental: Adult monkey pituitaries (n=22) were halved and then treated separately with artificial cerebrospinal fluid (aCSF) equilibrated with 95% O2 and 5% CO2 and incubated at 37° C. After 1 hr equilibration period, halves were incubated for 45 min in aCSF (basal period) before being challenged with glucose (Glu): 15 mM, insulin (Ins): 200 nM or Glu+Ins (15 mM+200 nM) treatments for 45 min. […] This was confirmed by measurement of α-MSH in monkey pituitaries by radioimmunoassay after acidic extraction (FIG. 1B).
# [6] = α-MSH levels after ip insulin injection; type: in vivo; conditions: POMC-Kir6.2 mutant mice and control littermates; human insulin 1.0 U/kg ip; FIG. 3B
# From the text: POMC-mutKIR6.2 mice is a mutant in which all POMC cells lack the capacity to sense glucose due to dysfunctional ATP/K+ channels. Mutants and wild-type littermates were fed a regular diet. Blood glucose and α-MSH samples were taken after ip injection of human insulin (1.0 U/kg). The results are shown in FIG. 3A. **P<0.01 vs baseline value in the respective group by repeated-measures ANOVA. # P<0.01 vs control littermate at the respective point by single measured.
# Chain of hMC5R (P33032 whole entry, the tested form may be a part): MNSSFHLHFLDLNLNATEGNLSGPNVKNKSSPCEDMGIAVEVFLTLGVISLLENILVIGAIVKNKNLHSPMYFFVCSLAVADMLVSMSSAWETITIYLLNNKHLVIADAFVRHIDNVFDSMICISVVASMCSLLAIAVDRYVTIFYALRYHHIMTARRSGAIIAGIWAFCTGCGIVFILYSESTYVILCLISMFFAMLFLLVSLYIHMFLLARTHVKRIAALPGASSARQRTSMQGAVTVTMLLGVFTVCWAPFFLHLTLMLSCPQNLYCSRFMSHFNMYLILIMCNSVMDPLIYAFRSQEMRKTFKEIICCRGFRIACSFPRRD
substance,measurement,setting,value
"agouti-related peptide (SSRRCVRLHESCLGQQVPCCDPCATCYCRFFNAFCYCRKLGTAMNPCSRT; UniProt O00253 83-132, looked up) [AgRP, reference compound]",effect on the response (increased glucose disposal) to α-MSH infusion,"[1]; AgRP 1.0 nmol to lateral ventricle 1 hr before α-MSH infusion, to block MC4R, FIG. 5C",does not prevent the response
Ac-Nle-c[Asp-Hyp-D-Nal(2′)-Arg-Trp-Lys]-NH2 [PG-911],EC50,hMC5R,31 pM
"α-melanocyte stimulating hormone (SYSMEHFRWGKPV) [α-MSH, native peptide; native agonist for the type 1, 3, 4 and 5 melanocortin receptors]",muscle temperature,"[2]; direct infusion into femoral artery, 1 μg/h, FIG. 4B",causes an increase in muscle temperature
same,post-prandial muscle temperature,"[2]; systemic infusion (external jugular vein), 100 μg/h, FIG. 4A",increases post-prandial muscle temperature
same,response to α-MSH infusion,"[1]; MC4R KO mice, data not shown",intact response
same,glucose disposal during ipGTT,"[1]; control mice, FIG. 5A",increases glucose disposal
same,glucose disposal during ipGTT,"[1]; obese (DIO) mice, FIG. 5B",does not increase glucose disposal
same,glucose uptake in soleus muscles,"soleus muscles; control mice, FIG. 6A",increases glucose uptake
same,glucose uptake in soleus muscles,"soleus muscles; obese mice, FIG. 6B",does not increase glucose uptake
same,p-AMPK muscle levels,p-AMPK [3],dose-dependent increase of p-AMPK muscle levels
same,cAMP levels in muscles,cAMP,increase of cAMP levels
same,p-AMPK protein expression in muscles (ratio P/Total AMPK),p-AMPK [4],increased
same,glucose uptake by rat L6 cells,[5],increases in glucose uptake
"Ac-Nle-c[Asp-Pro-D-Nal(2′)-Arg-Trp-Lys]-NH2 (XDPXRWK; Ac, amide, cyclic lactam, Nle, D-Nal(2'); PG-901)",increases of glucose uptake in skeletal muscle cells,"skeletal muscle cells; 1 nM and 5 nM amounts, FIG. 5D",30-40%
same,effect of an MC3R and MC4R antagonist on the increase of glucose uptake,"skeletal muscle cells; 1 nM and 5 nM amounts, data not shown",unaffected by the presence of an MC3R and MC4R antagonist
same,glucose uptake in muscle cells,skeletal muscle cells; FIG. 5D,increases glucose uptake in muscle cells
insulin,glucose uptake by rat L6 cells,[5],increases in glucose uptake
same,α-MSH release from pituitaries,adult monkey pituitaries,stimulate α-MSH release
same,α-MSH levels in response to insulin,[6],do not change
